According to patent US10662476B2 (priority 2011, dated 2020):
Where two headings read alike, the source gives them in different places.

Columns and labels:
[1] = Blood concentrations of morphine glucuronides by ABCC3 -211C>T genotype; conditions: for ratio to morphine concentration: heterozygous or homozygous ABCC3 -211C>T versus wild-type; for mean concentration at sampling time 10 to 15 minutes: wild-types (C/C) versus heterozygous and homozygous ABCC3 -211C>T, after single morphine dose
[2] = tested on: children after tonsillectomy; test: Pain intensity before and after codeine (0-100 visual analog scale); format: in vivo, human; conditions: POD 0-2; 0-100 VAS, 45-60 minutes after dose; SE 2
[3] = tested on: women following cesarean section; conditions: cited from earlier work
children following T/TA = conditions: cited from earlier work
[4] = tested on: children after tonsillectomy; test: Codeine-related adverse drug reactions at home after tonsillectomy (parent diary); conditions: with every one point increase in CYP2D6 TAS; POD 0-2

SMILES | ratio to morphine concentration [1] | mean concentration at sampling time 10 to 15 minutes [1] | reduction of pain intensity (average) [2] | reported analgesia ([3]; two patients with CYP2D6 TAS >3, discontinued due to ADRs) | reported analgesia ([3]; two patients with CYP2D6 TAS=0) | children withdrawn from study due to intolerable side effects (children following T/TA; PRN administration following T/TA) | children withdrawn from study due to intolerable side effects (children following T/TA; around-the-clock (ATC) administration following T/TA) | increase of predicted number of ADRs [4] | blood concentration at sampling time 10 to 15 minutes ([1]; twelve out of 105 children, all carrying the ABCC3 -211C>T variant, below lower quantitative limit)
CN1CC[C@]23c4c5ccc(O[C@@H]6O[C@H](C(=O)O)[C@@H](O)[C@H](O)[C@H]6O)c4O[C@H]2[C@@H](O)C=C[C@H]3[C@H]1C5 [M3G, Morphine-3-glucuronide] | significantly lower | higher |  |  |  |  |  |  | 
COc1ccc2c3c1O[C@H]1[C@@H](O)C=C[C@H]4[C@@H](C2)N(C)CC[C@@]341 [codeine] |  |  | 28 points | significant pain relief | no analgesia | 6.7% | 17.4% | 0.41 | 
CN1CC[C@]23c4c5ccc(O)c4O[C@H]2[C@@H](O[C@@H]2O[C@H](C(=O)O)[C@@H](O)[C@H](O)[C@H]2O)C=C[C@H]3[C@H]1C5 [M6G, morphine-6-glucuronide] | significantly lower | higher |  |  |  |  |  |  | < 1 ng/mL
